Measurements reported in patent US20220296718A1, “EXCIPIENT FOR BIOTHERAPEUTICS” (Ludwig-Maximilians-Universität München, priority 2019, published 2022).

What was measured:
Assay type in all cases: physicochemical
[1] = test system: IgG antibody trastuzumab; assay: Particle formation after freezing/thawing stress of trastuzumab (flow imaging microscopy); conditions: 50 mM phosphate buffer, pH 7.0; 5 mg/ml trastuzumab; 50 mM excipient; FIG. 1
Procedure: (§1) Production of Test Solutions: The buffer solution consisted of 50 mM sodium phosphate at pH 7.0. Protein stock solutions were liberated from other excipients by IEX chromatography to remove potential impurities and surfactants and by dialysis over 24 h in buffer solution 100-200 times of their volumes. The buffer solution was renewed after 3 hours and after 14 hours. Stock solutions of test excipients were produced by dissolving 500 mM of the excipient in 90% of the required amount of buffer solution. After that, the pH was adjusted and the remaining volume of buffer solution was added. Then, the solution was filtered with a 0.22 μm filter. The corresponding amount of protein stock solution was added. Sufficient homogenization was provided.
(§2) Freeze/Thaw-Cycle: The protein-containing solutions were filled into cleaned 2R vials and crimped. The samples were frozen from 20° C. to −50° C. in 3 cycles at a rate of 2K/min in a Christ 2D-6 freeze dryer and then thawed at room temperature until the entire sample had reached the liquid state, before the cycle was started again.
(§3) Flow Imaging Microscopy: 165 μl of the sample solution were measured at 10× magnification using a flow imaging microscope (FlowCam, Fluid Imaging Technologies, Inc., Scarborough, Me., USA).
(§4) The resulting solutions were subjected to freezing/thawing stress and stirring stress.

[2] = test system: IgG antibody trastuzumab; assay: Particle formation after stirring stress of trastuzumab (flow imaging microscopy); conditions: 50 mM phosphate buffer, pH 7.0; 5 mg/ml trastuzumab; 50 mM excipient; 2 h at 200 rpm; FIG. 2
Procedure: as §1
Stirring Stress: The protein-containing solutions were filled into cleaned 2R vials and crimped. Afterwards, the samples were stirred for 2 h at 200 rpm with a magnetic stirrer (Variomag Poly 15, Thermofisher, 3 mm polytetrafluoroethylene—coated stirring bars).
as §3, §4

[3] = target: interferon-alpha-2a (Homo sapiens, UniProt P01563, R46K); assay: Particle formation after freezing/thawing stress of interferon-alpha-2a; conditions: 50 mM phosphate buffer, pH 7.0; 1 mg/ml interferon-alpha-2a; 50 mM excipient; FIG. 3
Chain of interferon-alpha-2a (P01563 24-188 R46K): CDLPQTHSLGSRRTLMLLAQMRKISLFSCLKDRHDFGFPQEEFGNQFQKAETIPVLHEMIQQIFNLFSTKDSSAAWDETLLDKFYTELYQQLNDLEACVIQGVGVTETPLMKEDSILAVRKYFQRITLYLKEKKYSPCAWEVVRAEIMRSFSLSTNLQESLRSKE
Procedure: as §1, §2, §3
The resulting solutions were subjected to freeze/thawing stress.

[4] = test system: recombinant IgG antibody, either rituximab or omalizumab; assay: Particles and turbidity (visual inspection) after freezing/thawing and stirring stress of rituximab or omalizumab; conditions: 10 mg/ml rituximab or omalizumab, 20 mM histidine pH 6.0, 75 mM excipient; compared with trehalose, sucrose, or trehalose or sucrose with methionine
Procedure: as §1, with “of 20” for “of 50”, “mM histidine buffer” for “mM sodium phosphate at”, “pH 6.0.” for “pH 7.0.”, “excipients” for “excipients by IEX chromatography to remove potential impurities and surfactants and”, “after 6” for “after 3”, “after 20” for “after 14”
Freeze/Thaw-Cycle: The protein-containing solutions were filled into cleaned 6R vials and crimped. The samples were frozen from 20° C. to −70° C. in 5 cycles in a freezer and then thawed at room temperature until the entire sample had reached the liquid state, before the cycle was started again.
Stirring Stress: The protein-containing solutions were filled into cleaned 6R vials and crimped. Afterwards, the samples were stirred for 2 h at 200 rpm with a magnetic stirrer (Variomag Poly 15, Thermofisher, 5 mm polytetrafluoroethylene—coated stirring bars).
Visual inspection: 3 Vials of each formulation were visually inspected according to the method described in the European Pharmacopoeia. […]

[5] = target: T1, recombinant G-CSF (Homo sapiens, UniProt P09919); assay: Particles and turbidity after freezing/thawing and stirring stress of G-CSF; conditions: 1 mg/ml G-CSF, 10 mM acetate pH 4.5, 50 mM excipient; compared with trehalose, sucrose, or trehalose or sucrose with methionine
T1 sequence (P09919 31-207): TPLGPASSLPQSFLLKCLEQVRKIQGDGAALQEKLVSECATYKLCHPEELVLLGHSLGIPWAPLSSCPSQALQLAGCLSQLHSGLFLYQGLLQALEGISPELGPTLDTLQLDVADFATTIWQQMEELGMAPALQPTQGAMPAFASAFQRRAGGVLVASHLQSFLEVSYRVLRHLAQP
Procedure: (§5) The production of test solutions, the freeze/thaw-cycle, the measurement of stirring stress and the visual inspection were performed substantially as described in Example 4.
The buffer solution consisted of 10 mM acetate buffer pH 4.5 and was renewed after 4 hours and after 16 hours. For the freeze/thaw cycle and the measurements of stirring stress, 2R vials were used.
N,N,N′,N′-tetrakis-(2-hydroxyethyl) adipinic acid amide (Ark Pharm Inc.), D(+) trehalose (Sigma-Aldrich), sucrose, and mixtures of trehalose or sucrose with methionine (Sigma-Aldrich) respectively, was added as a test excipient to an aqueous solution containing recombinant G-CSF. […] In the case of sucrose or trehalose mixtures with methionine, the concentration of the sugar was 50 mM, and the concentration of methionine was 20 mM. The resulting solutions were subjected to freezing/thawing stress and stirring stress.

[6] = target: recombinant anakinra (Homo sapiens, UniProt P18510); assay: Particles and turbidity after freezing/thawing and stirring stress of anakinra; conditions: 50 mg/ml anakinra, 20 mM citrate pH 6.5, 50 mM excipient, freezing/thawing and 3 h stirring stress
Chain of recombinant anakinra (P18510 with tags, fused parts or gaps): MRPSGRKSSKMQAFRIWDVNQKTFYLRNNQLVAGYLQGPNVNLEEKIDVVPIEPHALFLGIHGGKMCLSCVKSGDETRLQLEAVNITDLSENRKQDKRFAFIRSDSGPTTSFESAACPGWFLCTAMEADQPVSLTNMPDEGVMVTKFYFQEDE
Procedure: as §5
The buffer solution consisted of 20 mM citrate buffer pH 6.5. The samples were stirred for 3 h.
N,N,N′,N′-tetrakis-(2-hydroxyethyl) adipinic acid amide (Ark Pharm Inc.), D(+) or trehalose (Sigma-Aldrich), or polysorbate 80, was added as a test excipient to an aqueous solution containing recombinant anakinra. […] In the case of polysorbate 80 its concentration was 0.05%. The resulting solutions were subjected to freezing/thawing stress and stirring stress.

[7] = Solubility in water, classification of the European Pharmacopoeia
Procedure: In certain embodiments, the diamide has a solubility in water of at least about 0.02% (w/v), of at least about 0.05% (w/v), of at least about 0.1% (w/v), of at least about 0.5% (w/v) or of at least about 1% (w/v) at 20° C., e.g. as determined by the column elution method according to the OECD Guidelines, Test No. 105. Preferably, the diamide is considered as soluble, well soluble or freely soluble according to the classifications of the European Pharmacopoeia, which is herein incorporated by reference.

Particles in stressed formulations [4] | Turbidity of stressed formulations [4] | Particles in stressed formulations [5] | Turbidity of stressed formulations [5] | Particles in stressed formulations, compared with trehalose [6] | Turbidity of stressed formulations, compared with trehalose [6] | Particles in stressed formulations, compared with polysorbate 80 ([6]; polysorbate 80 at 0.05%) | Turbidity of stressed formulations, compared with polysorbate 80 ([6]; polysorbate 80 at 0.05%) | Solubility according to the classification of the European Pharmacopoeia [7] | Compound | Amount of particles after 3 freezing/thawing cycles [1] | Amount of particles after stirring stress [2] | Amount of particles after 3 freezing/thawing cycles [3]
– | – | – | – | – | – | – | – | – | Polysorbate 20 [reference compound] | even less particles | – | –
less particles | less turbid | less particles | less turbid | less particles | less turbid | about equally low amounts of particles | about equally low in turbidity | well soluble | O=C(CCCCC(=O)N(CCO)CCO)N(CCO)CCO [compound A, N,N,N′,N′-tetrakis-(2-hydroxyethyl) adipinic acid amide] | less particles than formulations comprising standard excipients like, glycerol, NaCl, or D(+) trehalose or formulations without any excipients | less particles than formulations comprising standard excipients like, glycerol, NaCl, or D(+) trehalose or formulations without any excipients | less particles than formulations without any excipient and formulations with arginine or polysorbate 20
